According to US20180057588A1, “Antibodies Towards an Extracellular Region of NBCn1” (Aarhus Universitet, priority 2015, published 2018):

Tests used:
[1] = molecular target: T1, NHE1-mediated Na+/H+-exchange in MCF-7 human breast cancer cells (Homo sapiens, UniProt P19634); conditions: Lauritzen et al., 2010; cited from earlier work
T1 construct: net acid extrusion from MCF-7 cells occurs through a combination of NBCn1-mediated Na^+,HCO3^−-cotransport and NHE1-mediated Na^+/H^+-exchange; endogenous in cells; host or cells: MCF-7 human breast cancer cells (Lauritzen et al., 2010)
T1 sequence (P19634 whole entry): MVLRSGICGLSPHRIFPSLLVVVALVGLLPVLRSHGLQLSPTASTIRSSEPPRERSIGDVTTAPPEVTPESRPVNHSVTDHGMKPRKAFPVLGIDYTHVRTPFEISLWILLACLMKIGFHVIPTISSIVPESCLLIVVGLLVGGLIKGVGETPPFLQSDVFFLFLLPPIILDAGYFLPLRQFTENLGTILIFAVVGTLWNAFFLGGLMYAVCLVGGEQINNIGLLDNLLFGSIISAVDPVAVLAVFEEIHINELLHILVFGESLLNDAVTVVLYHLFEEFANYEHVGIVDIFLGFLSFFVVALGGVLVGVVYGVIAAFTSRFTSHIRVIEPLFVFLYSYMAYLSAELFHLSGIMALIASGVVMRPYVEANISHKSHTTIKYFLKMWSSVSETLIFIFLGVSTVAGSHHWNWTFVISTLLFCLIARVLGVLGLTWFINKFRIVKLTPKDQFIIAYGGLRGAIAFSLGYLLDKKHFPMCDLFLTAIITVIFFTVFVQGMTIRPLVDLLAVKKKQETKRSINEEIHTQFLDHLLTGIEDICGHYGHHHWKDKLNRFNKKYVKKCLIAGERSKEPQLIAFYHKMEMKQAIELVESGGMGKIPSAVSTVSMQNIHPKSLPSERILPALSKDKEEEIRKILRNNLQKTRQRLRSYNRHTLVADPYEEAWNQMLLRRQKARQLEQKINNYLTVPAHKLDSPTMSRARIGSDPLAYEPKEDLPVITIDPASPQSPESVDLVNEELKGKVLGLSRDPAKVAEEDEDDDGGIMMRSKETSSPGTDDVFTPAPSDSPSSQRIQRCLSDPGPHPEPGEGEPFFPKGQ

[2] = system: Na+,HCO3−-cotransport in primary aortic explants; test: Global pHi recovery and steady-state pHi in primary aortic explants (BCECF); format: cell-based, mouse
Protocol: Primary explants were produced from thoracic aortas and common carotid arteries of NBCn1 KO and wild-type (WT) mice. To best maintain the cell morphology and phenotype of native VSMCs, cultured cells were never passaged but investigated directly in primary explants.
(§1) Using wide-field fluorescence microscopy, global pHi was recorded in arteries and primary explants loaded with the pH-sensitive fluorophore BCECF. Recordings of pHi in subcellular domains were performed by confocal fluorescence microscopy of cells loaded with the pH-sensitive fluorophore carboxy SNARF-1. Intracellular buffering capacities were calculated from changes in pHi upon washout of NH4Cl. No difference in total intracellular buffering capacity (β) was seen between primary explants from NBCn1 KO and WT mice (βWT=15±2 mM, βKO=17±2 mM, n=8; P=0.45, unpaired two-tailed Student's t-test) evaluated at pHi 6.65-6.80.
The PSS was composed of (in mM) 134 Na^+, 4 K^+, 1.6 Ca^2+, 1.2 Mg^2+, 111 Cl^−, 24 HCO3^−, 1.2 SO4^2−, 1.18 H2PO4^−, 10 HEPES, 5.5 glucose, 0.03 EDTA. In Na^+-free solutions, Na^+ was substituted with an equimolar amount of N-methyl-D-glucammonium (NMDG^+), except for NaHCO3, which was replaced with choline-HCO3. In HCO3^−-free solutions, HCO3^− was replaced with an equimolar amount of Cl^−. […]

[3] = system: VSMC migration in primary aortic explants; test: Scratch-wound healing in primary aortic explants; format: cell-based, mouse
Protocol: (§2) Rates of wound healing in primary explants were calculated from time-lapse images captured at 5-minute intervals after scratch infliction. Experiments were performed in Minimum Essential Medium with 10% fetal calf serum or—to avoid binding of the non-selective Na^+,HCO3^−-cotransport inhibitor S0859 to medium or serum components—in physiological saline solutions (PSS). Cell size was estimated based on cell density in confluent areas. Total filopodia length was determined relative to the length of the migrating front (i.e., twice the scratch length). Cell proliferation was evaluated (a) by counting the relative number of cells dividing during six hours time-lapse imaging and (b) as the proportion of cells positive for the thymidine analogue bromodeoxyuridine (BrdU) after six hours incubation.
(§3) The PSS was composed of (in mM) 134 Na^+, 4 K^+, 1.6 Ca^2+, 1.2 Mg^2+, 111 Cl^−, 24 HCO3^−, 1.2 SO4^2−, 1.18 H2PO4^−, 10 HEPES, 5.5 glucose, 0.03 EDTA. In Na^+-free solutions, Na^+ was substituted with an equimolar amount of N-methyl-D-glucammonium (NMDG^+), except for NaHCO3, which was replaced with choline-HCO3. In HCO3^−-free solutions, HCO3^− was replaced with an equimolar amount of Cl^−. HCO3^−-containing solutions were aerated with a gas mixture of 5% CO2/balance air, whereas HCO3^−-free solutions were gassed with air (i.e., 21% O2/balance N2). All solutions were titrated to pH 7.4 at 37° C.

[4] = system: VSMCs of primary aortic explants; test: VSMC proliferation by time-lapse counting of mitoses; format: cell-based, mouse; conditions: 5 μM, PSS, six hours time-lapse
Protocol: as §2

primary aortic explants = test: Cell integrity, morphology and viability during 18 hours of time-lapse imaging; format: cell-based, mouse
Protocol: as §2, §3

[5] = system: migrating VSMCs of primary aortic explants; test: Filopodia length at the migrating front after scratch infliction; format: cell-based, mouse; conditions: for presence of filopodia: 5 μM
Protocol: as §2

[6] = system: axial pHi gradient in migrating VSMCs of primary aortic explants; test: Subcellular pHi by confocal microscopy (carboxy SNARF-1) in migrating VSMCs; format: cell-based, mouse
Protocol: as §1
Previous studies from non-vascular cell types propose that increased acid extrusion at the leading edge of migrating cells creates an axial pHi gradient, which can facilitate actin polymerization, filopodia formation, and cell migration. To investigate pH gradients within cells, we measured pHi -differences between the tip of filopodia and the general (perinuclear) cytosol two hours after scratch infliction. […] With the intention of investigating local pHi dynamics in the region of the filopodia, we incubated primary explants in absence of CO2/HCO3^− for two hours after wound infliction to allow for filopodia formation. We then investigated pHi after an additional 15 minutes with or without CO2/HCO3^− or in the presence of pharmacological inhibitors (FIG. 13E,F). […]

[7] = molecular target: T2, NBCn1-mediated Na+,HCO3−-cotransport in MCF-7 human breast cancer cells (Homo sapiens, UniProt Q9Y6M7); conditions: earlier work; cited from earlier work
T2 construct: net acid extrusion from MCF-7 cells occurs through a combination of NBCn1-mediated Na^+,HCO3^−-cotransport and NHE1-mediated Na^+/H^+-exchange; endogenous in cells; host or cells: MCF-7 human breast cancer cells (Lauritzen et al., 2010)
T2 sequence (Q9Y6M7 1-1214): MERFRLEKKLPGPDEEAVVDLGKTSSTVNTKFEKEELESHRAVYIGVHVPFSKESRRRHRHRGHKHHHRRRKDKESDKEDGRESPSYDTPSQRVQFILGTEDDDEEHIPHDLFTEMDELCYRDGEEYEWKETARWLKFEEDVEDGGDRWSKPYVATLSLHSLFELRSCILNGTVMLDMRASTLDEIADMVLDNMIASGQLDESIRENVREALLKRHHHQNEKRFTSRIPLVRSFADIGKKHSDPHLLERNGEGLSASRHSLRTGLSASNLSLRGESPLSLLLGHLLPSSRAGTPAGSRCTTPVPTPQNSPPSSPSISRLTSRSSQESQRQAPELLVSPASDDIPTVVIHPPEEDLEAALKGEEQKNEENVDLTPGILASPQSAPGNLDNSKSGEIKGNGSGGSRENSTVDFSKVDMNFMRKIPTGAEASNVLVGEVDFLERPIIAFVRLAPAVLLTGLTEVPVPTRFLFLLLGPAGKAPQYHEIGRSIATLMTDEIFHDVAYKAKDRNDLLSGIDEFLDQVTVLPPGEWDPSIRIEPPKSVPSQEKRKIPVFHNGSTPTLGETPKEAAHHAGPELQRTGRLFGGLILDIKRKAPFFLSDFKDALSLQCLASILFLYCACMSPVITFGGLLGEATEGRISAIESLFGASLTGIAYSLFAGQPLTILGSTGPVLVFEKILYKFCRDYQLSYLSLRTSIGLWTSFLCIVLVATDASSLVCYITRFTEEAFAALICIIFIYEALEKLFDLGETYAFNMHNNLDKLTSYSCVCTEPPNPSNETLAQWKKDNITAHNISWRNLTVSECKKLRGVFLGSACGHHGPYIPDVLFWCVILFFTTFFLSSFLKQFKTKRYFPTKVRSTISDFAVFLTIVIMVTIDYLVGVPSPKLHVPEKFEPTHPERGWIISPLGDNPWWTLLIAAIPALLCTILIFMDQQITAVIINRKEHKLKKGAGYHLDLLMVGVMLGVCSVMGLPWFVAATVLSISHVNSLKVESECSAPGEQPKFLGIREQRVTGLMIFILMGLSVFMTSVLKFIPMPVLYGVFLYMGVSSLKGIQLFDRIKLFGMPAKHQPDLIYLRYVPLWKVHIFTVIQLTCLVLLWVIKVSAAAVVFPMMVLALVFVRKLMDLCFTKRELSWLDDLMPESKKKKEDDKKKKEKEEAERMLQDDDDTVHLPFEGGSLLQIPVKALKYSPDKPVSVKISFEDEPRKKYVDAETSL

[8] = system: Na+,HCO3−-cotransport in isolated arteries; conditions: previously shown; cited from earlier work
[9] = system: Na+,HCO3−-cotransport in breast cancer slices or freshly isolated breast cancer organoids; conditions: earlier work; cited from earlier work
[10] = earlier work; cited from earlier work

CCN(c1nc(N)c(C(=O)N=C(N)N)nc1Cl)C(C)C [5-(N-Ethyl-N-isopropyl)amiloride]
remaining net acid extrusion after inhibition of Na+,HCO3−-cotransport in MCF-7 cells [1]: inhibited

Cc1ccc(CN(Cc2ccc(-c3ccccc3S(=O)(=O)NC#N)cc2)C(=O)c2ccccc2Cl)cc1 [S0859]
Na+,HCO3−-cotransport activity ([2]; primary aortic explants from WT mice, CO2/HCO3- present, 5 and 30 μM): concentration-dependently attenuates | steady-state pHi ([2]; primary aortic explants, five minutes after addition of S0859): concentration-dependently attenuates | wound healing ([3]; 5 μM, PSS, presence of CO2/HCO3-): inhibited | relative number of mitoses [4]: no effect | cell integrity and morphology (primary aortic explants; 5 μM, 18 hours, PSS with CO2/HCO3-): well-maintained | cell morphology (primary aortic explants; 30 μM, 18 hours, PSS with CO2/HCO3-): severe morphological changes | cell viability (primary aortic explants; primary explants, CO2/HCO3−-containing PSS, FIG. 16): causes loss of cell viability | presence of filopodia ([5]; CO2/HCO3−-free conditions): unaffected | presence of filopodia ([5]; explants from WT mice, CO2/HCO3−-containing PSS): reduced | pHi of migrating VSMCs, in particular at the tip of filopodia ([6]; 5 μM, 15 minutes exposure, PSS): strongly acidified | Na+,HCO3−-cotransport in cultures of MCF7 breast cancer cells [7]: inhibits | cellular net acid extrusion in isolated arteries [8]: does not affect | effect in breast cancer slices or freshly isolated breast cancer organoids [9]: has no effect | protein binding [10]: unusually strong protein binding

C[C@@H](N)[C@H]1CC[C@H](C(=O)Nc2ccncc2)CC1 [Y-27632]
wound healing ([3]; 10 μM, primary aortic explants from NBCn1 KO and WT mice): stimulated

CC(=O)Nc1nnc(S(N)(=O)=O)s1 [acetazolamide]
initial rate of wound healing ([3]; 100 μM, aortic explants from NBCn1 KO mice, CO2/HCO3−-containing medium with serum): increased | abundance of filopodia ([5]; 100 μM, aortic explants from NBCn1 KO mice, presence of CO2/HCO3-): increased abundance | axial pHi gradients ([6]; 100 μM, explants from NBCn1 KO mice, presence of CO2/HCO3-): reestablishes
